From article PMC11336974 (2024)

Assays:
[1] = system: biotinylated miR-193a-3p (RNA, miRNA) AACUGGCCUACAAAGUCCCAGU; assay: SPR (OpenSPR); conditions: 190 mM NaCl; 10 mM HEPES, 1 mM EDTA, 0.02% Tween-20; Trp 2, 20, 200 µM
[2] = system: mutated miR-193a-3p (miR-193a-mut) (RNA, miRNA) AACUUCCUACAAAGUCCCAGU; assay: CD spectra; conditions: 190 mM NaCl; 20 mM HEPES pH 7.2, 1 mM EDTA, BSA, Tween-20; 200 µM Trp
[3] = system: mutated miR-193a-3p (miR-193a-mut) (RNA, miRNA) AACUUCCUACAAAGUCCCAGU; assay: ITC; conditions: 190 mM NaCl; 20 mM HEPES pH 7.2, 1 mM EDTA, BSA, Tween-20; 200 µM Trp titrant
[4] = system: miR-193a-3p (RNA, miRNA) AACUGGCCUACAAAGUCCCAGU; assay: CD spectra; conditions: 190 mM NaCl; 20 mM HEPES pH 7.2, 1 mM EDTA, BSA, Tween-20; 100 nM RNA, 200 µM Trp
[5] = system: miR-193a-5p (RNA, miRNA) UGGGUCUUUGCGGGCAAGAUGA; assay: CD spectra; conditions: 190 mM NaCl; 20 mM HEPES pH 7.2, 1 mM EDTA, BSA, Tween-20; 200 µM Trp
[6] = system: miR-193a-3p (RNA, miRNA) AACUGGCCUACAAAGUCCCAGU; assay: ITC; conditions: 190 mM NaCl; 20 mM HEPES pH 7.2, 1 mM EDTA, 37.5 µg/ml BSA, 0.02% Tween-20; apparent

Compound: N[C@@H](Cc1c[nH]c2ccccc12)C(=O)O
- binding [1]: yes
- binding [2]: no
- binding [3]: no
- binding [4]: yes
- binding [5]: no
- Kd [6]: 5.3 µM
